Patent US20110224210A1, “NOVEL BIS-AMIDES AS ANTI-MALARIAL AGENTS” (priority 2008, published 2011)
Read-outs that look alike come from different tables or passages of the source.

System: P. falciparum K1 (strain resistant to chloroquine and pyrimethamine), erythrocytic stages
Experiment: Plasmodium falciparum in vitro assay, [3H] hypoxanthine incorporation
Assay type: cell-based
Settings: [3H] hypoxanthine incorporation, read-out: IC50 (nM) on K1
Summary of the method: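 Chloroquine/pyrimethamine-resistant K1 erythrocytic cultures (2.5% haematocrit, 0.3% parasitaemia, hypoxanthine-free RPMI with Albumax) exposed to seven doubling dilutions at 37 °C under low O2.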

[1] = Plasmodium falciparum, K1, P. falciparum strain K1

Compound | IC50 [1] [nM] | IC50 (P. falciparum strain K1) [nM]
CN(C)CC1CCN(C(=O)[C@H](Cc2ccccc2)N(Cc2ccc(-c3ccccn3)cc2)C(=O)C=Cc2ccc(C(F)(F)F)nc2)CC1 [Example 51, (S)-N-[1-Benzyl-2-(4-dimethylaminomethyl-piperidin-1-yl)-2-oxo-ethyl]-N-(4-pyridin-2-yl-benzyl)-3-(6-trifluoromethyl-pyridin-3-yl)-acrylamide] | 90 | 
CC(=O)N1CCN(c2ccc(CN(C(=O)C=Cc3ccc(C(F)(F)F)cc3)[C@@H](Cc3ccccc3)C(=O)N(C)CCOCc3ccc(C)cc3C)cc2)CC1 [Example 194, (S)-N-[4-(4-Acetyl-piperazin-1-yl)-benzyl]-N-(1-{[2-(2,4-dimethyl-benzyloxy)-ethyl]-methyl-carbamoyl}-2-phenyl-ethyl)-3-(4-trifluoromethyl-phenyl)-acrylamide] |  | 89
Cc1noc(C)c1C=CC(=O)N(Cc1ccc(-c2ccncc2)cc1)[C@@H](Cc1ccccc1)C(=O)N1CCC(N(C)C)CC1 [Example 24, (S)-N-[1-Benzyl-2-(4-dimethylamino-piperidin-1-yl)-2-oxo-ethyl]-3-(3,5-dimethyl-isoxazol-4-yl)-N-(4-pyridin-4-yl-benzyl)-acrylamide] | 103 | 
